Data reported in patent publication US20220323443A1, “COMBINATION THERAPY FOR CANCER TREATMENT” (TAKEDA PHARMACEUTICAL COMPANY LIMITED, priority 2019, published 2022).
Structures can show the parent of a compound that is named as a salt. Where two headings read alike, the source gives them in different places.

How the values were obtained:
[1] = tested on: PHTXM-79Es human primary esophagus cancer xenografts; test: In vivo combination study, Patient Derived Xenograft; parameters: species or system mouse
Method: (§1) To investigate in vivo antitumor activity of Compound 1 in combination with other agents, tests using Cell Derived Xenograft (CDX), Patient Derived Xenograft (PDX) and Syngeneic mouse tumor isograft model were conducted. Cells or Patient Derived Tumors were inoculated by one method of the following two methods (Method A and B) as shown Table 7.
(§2) Method A; Cells were maintained in either immune deficient nude mice or immune competent mice by subcutaneous inoculation of tumor cells at various concentrations into respected mice. Method B: Patient Derived Tumor s were maintained in nude mice by subcutaneous inoculation of tumor pieces (approx. 2×2×2 mm) into nude mice. Mice with tumor size of approximately 50 mm^3 (e.g., 40-75 mm^3) for syngeneic mouse studies or 200 mm^3 (e.g., 110-270 mm^3) for xenograft studies were randomly assigned to dose groups on the day (Day 0) before start date of dosing.
(§3) Compound 1 (crystalline form I) was suspended in 0.5 w/v % methylcellulose and administered orally to mice. Antibodies which administered in the experiment were described in Table 8.
(§4) Tumor size was measured by caliper and tumor volume was estimated using the equation V=(LW^2)/2, where L and W are tumor length and width, respectively and reported in cubic millimeters.
(§5) These values were compared across treatment groups to assess whether the differences in the trends over time were statistically significant. To compare pairs of treatment groups, the following mixed-effects linear regression model was fit to the data using the maximum likelihood method:
(§6) For synergy analyses, the observed differences in the log tumor values were used to calculate AUC values for each animal. In instances when an animal in a treatment group was removed from the study, the last observed tumor value was carried forward through all subsequent time points. The AUC for the control, or vehicle, group was calculated using the predicted values from the pairwise models described above. We defined a measure of synergy as follows:
(§7) where Ak and Bk are the k^th animal in the individual treatment groups and ABk is the k^th animal in combination treatment group. AUCcd is the model-predicted AUC for the control group and was treated as a constant with no variability. The standard error of the synergy score was calculated as the square root of the sum of squared standard errors across groups A, B, and AB. The degrees of freedom were estimated using the Welch-Satterthwaite equation. A hypothesis test was performed to determine if the synergy score differed from 0. P values were calculated by dividing the synergy score by its standard error and tested against a t-distribution (two-tailed) with the above-calculated degrees of freedom.
(§8) The effect was classified into four different categories. It was considered synergistic if the synergy score was less than 0 and additive if the synergy score wasn't statistically different from 0. If the synergy score was greater than zero, but the mean AUC for the combination was lower than the lowest mean AUC among the two single agent treatments, then the combination was sub-additive. If the synergy score was greater than zero, and the mean AUC for the combination was greater than the mean AUC for at least one of the single agent treatments, then the combination was antagonistic.

PHTXM-97Pa (Pancreatic) = test: as above; parameters: species or system mouse; conditions: PHTXM-97Pa (180 mm^3)
Method: as §1, §2, §3, §4, §5, §6, §7, §8

PHTXM-90Es (Esophagus) = test: as above; parameters: species or system mouse; conditions: PHTXM-90Es (185 mm^3); Compound 1 60 mg/kg once daily Day 1-21; drug 10 mg/kg intraperitoneally Days 1,5,9,13,17,21
Method: as §1, §2, §3, §4, §5, §6, §7, §8

[2] = tested on: PHTX-249Pa human primary pancreatic xenografts; test: as above; parameters: species or system mouse; conditions: PHTX-249Pa (195 mm^3)
Method: as §1, §2, §3, §4, §5, §6, §7, §8

[3] = tested on: PHTXM-35Es human primary esophagus cancer xenografts; test: as above; parameters: species or system mouse; conditions: PHTXM-35Es (240 mm^3); Compound 1 60 mg/kg once daily Day 1-21; drug 10 mg/kg intraperitoneally Days 1,5,9,13,17,21
Method: as §1, §2, §3, §4, §5, §6, §7, §8

A549 cancer cells = test: In vitro combination study with Compound 1, Cell Titer-Glo (ATP) cell viability, 72 h; format: cell-based;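 also: Ten-by-ten dose matrices of the two agents in duplicate, compounds added 16 h post-plating, activity relative to DMSO vehicle wells, call reflects synergy evaluation from luminescence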
SW620 cancer cells = test: as above; format: cell-based; conditions: DNA damaging agent combined with Compound 1; 72 h;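 also: Ten-by-ten dose matrices of both drugs in 384-well plates, luminescent ATP read-out, synergy evaluated against single-agent and DMSO vehicle controls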
COLO205 cancer cells = test: as above; format: cell-based, human; conditions: DNA damaging agent combined with Compound 1; 72 h;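 also: Ten-by-ten dose matrices of both agents in duplicate plus single-agent dilutions, luminescent ATP read-out, percent activity per well relative to DMSO vehicle wells, synergy call from these matrices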
SW48 cancer cells = test: as above; format: cell-based; conditions: DNA damaging agent combined with Compound 1; 72 h
[4] = tested on: pancreatic cancer (MIA-PACA-2) cell line; test: In vitro combination study for selected compounds, additional cell lines; format: cell-based; conditions: drug combined with Compound 1
Method: (§9) In vitro anti-proliferative effects of selected compounds were tested in additional cell lines, including ovarian cancer (SKOV3) and pancreatic cancer (MIA-PACA-2) cell lines.

H-1650 (Lung) = test: as above; format: cell-based; conditions: drug combined with Compound 1
Method: as §9

[5] = tested on: ovarian cancer (SKOV3) cell line; test: as above; format: cell-based; conditions: drug combined with Compound 1
Method: as §9

H460 cancer cells = test: In vitro combination study with Compound 1, Cell Titer-Glo (ATP) cell viability, 72 h; format: cell-based; conditions: DNA damaging agent combined with Compound 1; 72 h;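 also: Ten-by-ten dose matrices of both drugs alongside single-agent dilutions, luminescence read 72 hours after compound addition, percent activity per well versus vehicle (DMSO) plate controls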
HCT116 cancer cells = test: as above; format: cell-based; conditions: DNA damaging agent combined with Compound 1; 72 h;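 also: combination call from 10×10 dose matrices in duplicate, graded by synergy, with percent activity per well relative to DMSO vehicle controls on the same plate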
[6] = tested on: PHTXS-13O human primary ovarian cancer xenografts; test: In vivo combination study, Patient Derived Xenograft; parameters: species or system mouse; conditions: for Result (combination with Compound 1, tumor growth): PHTXS-13O (170 mm^3) FIG. 4A
Method: as §1, §2, §3, §4, §5, §6, §7, §8

CALU6 (Lung) = test: In vitro combination study for selected compounds, additional cell lines; format: cell-based; conditions: drug combined with Compound 1
Method: as §9

[7] = Compound 1 20 mg/kg once daily Day 1-21, drug 5 mg/kg intraperitoneally Days 1,5,9,13,17,21
[8] = Compound 1 20 mg/kg once daily Day 1-21, drug 10 mg/kg intraperitoneally Days 1,5,9,13,17,21
[9] = Compound 1 40 mg/kg once daily Day 1-21, drug 5 mg/kg intraperitoneally Days 1,5,9,13,17,21
[10] = Compound 1 40 mg/kg once daily Day 1-21, drug 10 mg/kg intraperitoneally Days 1,5,9,13,17,21

For `CCc1c2c(nc3ccc(OC(=O)N4CCC(N5CCCCC5)CC4)cc13)-c1cc3c(c(=O)n1C2)COC(=O)[C@]3(O)CC` [Irinotecan (CPT-11), Irinotecan], the “Result (combination with Compound 1, tumor growth)” value (from here on “Result”) ([1]; PHTXM-79Es (160 mm^3) FIG. 5B, Compound 1 60 mg/kg once daily Day 1-21, drug 10 mg/kg intraperitoneally Days 1,5,9,13,17,21) was “Additive”, the antitumor activity ([1]; combined with Compound 1, PHTXM-79Es human primary esophagus cancer xenografts, FIG. 5B) was “strong antitumor activity compared to either single treatment alone” and the “Result” value (PHTXM-97Pa (Pancreatic); [7]) was “Additive”. For the same compound, the “Result” value (PHTXM-97Pa (Pancreatic); [8]) was “Additive”, the “Result” value (PHTXM-97Pa (Pancreatic); [9]) was “subadditive” and the “Result” value (PHTXM-97Pa (Pancreatic); [10]) was “subadditive”. For the same compound, the “Result” value (PHTXM-90Es (Esophagus)) was “Synergistic”, the “Result” value [2, 7] was “Additive” and the “Result” value [2, 8] was “Additive”. For the same compound, the “Result” value [2, 9] was “Additive”, the “Result” value [2, 10] was “Additive” and the “Result” value [3] was “Additive”.
`CC[C@@]1(O)C(=O)OCc2c1cc1n(c2=O)Cc2cc3c(CN(C)C)c(O)ccc3nc2-1` [Topotecan hydrochloride] was tested, and the “Call, anti-proliferative effect of combination with Compound 1, A549” value (A549 cancer cells; DNA damaging agent combined with Compound 1, 72 h) was “Synergy (0 to 0.7)”, the “Call, anti-proliferative effect of combination with Compound 1, SW620” value (SW620 cancer cells) was “Synergy (0 to 0.7)” and the “Call, anti-proliferative effect of combination with Compound 1, COLO205” value (COLO205 cancer cells) was “Synergy (0 to 0.7)”. For the same compound, the “Call, anti-proliferative effect of combination with Compound 1, SW48” value (shortened to “Call, anti-proliferative effect … SW48”) (SW48 cancer cells) was “Additivity (0.7 to 1.3)”, the “In vitro combination effect with Compound 1, Pancreas MIA-PACA-2” value [4] was “Additive” and the “In vitro combination effect with Compound 1, Lung H-1650” value (H-1650 (Lung)) was “Additive”. The “In vitro combination effect with Compound 1, Ovary SKOV3” value [5] was “Additive”, the “Call, anti-proliferative effect of combination with Compound 1, H460” value (“Call, anti-proliferative effect … H460” below) (H460 cancer cells) was “Synergy (0 to 0.7)” and the “Call, anti-proliferative effect of combination with Compound 1, HCT116” value (from here on “Call, anti-proliferative effect … HCT116”) (HCT116 cancer cells) was “Synergy (0 to 0.7)”.
`N.N.O=C([O-])C1(C(=O)[O-])CCC1.[Pt+2]` [Carboplatin] was tested, and the “Result” value ([6]; Compound 1 40 mg/kg once daily Day 1-14, drug 30 mg/kg intraperitoneally Days 1,5,9,13) was “Additive”, the “Result” value ([6]; Compound 1 40 mg/kg once daily Day 1-14, drug 50 mg/kg intraperitoneally Days 1,5,9,13) was “Additive” and the “Result” value ([6]; Compound 1 60 mg/kg once daily Day 1-14, drug 30 mg/kg intraperitoneally Days 1,5,9,13) was “Additive”. The “Result” value ([6]; Compound 1 60 mg/kg once daily Day 1-14, drug 50 mg/kg intraperitoneally Days 1,5,9,13) was “Additive”, the antitumor activity ([6]; combined with Compound 1, PHTXS-13O human primary ovarian cancer xenografts, FIG. 4A) was “strong antitumor activity compared to either single treatment alone” and the “Call, anti-proliferative effect … SW48” value (SW48 cancer cells) was “Additivity (0.7 to 1.3)”. For the same compound, the “In vitro combination effect with Compound 1, Lung CALU6” value (CALU6 (Lung)) was “Additive”, the “In vitro combination effect with Compound 1, Lung H-1650” value (H-1650 (Lung)) was “Additive” and the “Call, anti-proliferative effect … H460” value (H460 cancer cells) was “Synergy (0 to 0.7)”. For the same compound, the “Call, anti-proliferative effect … HCT116” value (HCT116 cancer cells) was “Synergy (0 to 0.7)”.
In the case of `CCc1c2c(nc3ccc(O)cc13)-c1cc3c(c(=O)n1C2)COC(=O)[C@]3(O)CC` [SN-38], the “Call, anti-proliferative effect of combination with Compound 1, A549” value (A549 cancer cells) is reported as “Synergy (key: Inconclusive: Any; Additivity: 0.7 to 1.3; Synergy: 0 to 0.7; Subadditivity: 1.3 to 2; Antagonism: >2)”, the “Call, anti-proliferative effect of combination with Compound 1, SW620” value (SW620 cancer cells) is reported as “Synergy (0 to 0.7)” and the “Call, anti-proliferative effect of combination with Compound 1, COLO205” value (COLO205 cancer cells) is reported as “Additivity (0.7 to 1.3)”. The “Call, anti-proliferative effect … SW48” value (SW48 cancer cells) was “Additivity (0.7 to 1.3)”, the “In vitro combination effect with Compound 1, Pancreas MIA-PACA-2” value [4] was “Additive” and the “In vitro combination effect with Compound 1, Lung H-1650” value (H-1650 (Lung)) was “Additive”. For the same compound, the “In vitro combination effect with Compound 1, Ovary SKOV3” value [5] was “Additive”, the “Call, anti-proliferative effect … H460” value (H460 cancer cells) was “Synergy (0 to 0.7)” and the “Call, anti-proliferative effect … HCT116” value (HCT116 cancer cells) was “Synergy (0 to 0.7)”.
